From US4740501A (priority 1985, dated 1988)
Several values for one entry are separate records, joined by “and”; a condition that tells them apart may be missing. Equal entries are not always repeated.

Assays:
[1] = tested on: Raji B-lymphoma; experiment: Tumor cell survival (trypan blue), continuous exposure; format: cell-based, Human
[2] = tested on: B-16 melanoma cells; experiment: Bioassay of tumorigenicity of in vitro treated tumor cells in syngeneic hosts; format: in vivo, C57BL/6 mice; conditions: for MEAN SURVIVAL TIME (MST) of recipients: control 28
Excerpt: Suspensions of untreated and tripeptide treated MJY-alpha mammary tumor, B-16 melanoma, and L-1210 leukemia cells were adjusted to a concentration of 1×10^7 cells/ml based on the initial tumor cell concentration before the tripeptide exposure. Tumor cells were inoculated into syngeneic hosts at a concentration of 1×10^6 cells in […]. Female BALB/c/Crgl recipients of MJY-alpha mammary tumor cells and male C57BL/6/Jx hosts receiving B16 melanoma cells were inoculated subcutaneously; BDf1 mice were given intraperitoneal injections of L-1210 cells. Subcutaneous tumors were measured along their long and short axes every 1 to 3 days; tumor size is reported as the product of the two measurements (mm^2). The examination periods for mice receiving L-1210, MJY-alpha and B-16 tumor grafts were 45, 80, and 85 days, respectively. All mice were autopsied at the time of death or sacrifice.

[3] = tested on: L-1210 leukemia; experiment: In vivo therapy of mice inoculated intraperitoneally with L-1210 leukemia; design: species or system DBA/2 mice
[4] = tested on: MMTV polypeptides; format: cell-based, mouse
[5] = tested on: B-type mouse mammary tumor virus particles in MJY-alpha cells; experiment: Electron microscopy of thin sections; format: cell-based; conditions: 25 ug/ml for 2 hours
Description: Thin sections MJY-alpha mammary tumor cells were prepared according to standard techniques for electronmicroscopy. The magnification was scaled where the bar was equal to one um. […] The tumor virus particles are shown in the insert and also throughout the lower two-thirds of the photograph as rope-like sections. […] It should be noted that numerous microvilli are present with budding particles also in evidence. […] After that treatment period, the layer of cells was washed and then reincubated for one (1) day prior to further processing for electronmicroscopy. Although there are some microvilli with budding particles present, the number of such particles and buds is reduced. […] The layer was then similarily washed and reincubated for a two (2) days prior to further processing for electronmicroscopy.

[6] = single dose 10, 15, and 20 mg/kg 48 hours after inoculation

CCOC(=O)[C@H](CCSC)NC(=O)[C@H](Cc1cccc(N(CCCl)CCCl)c1)NC(=O)[C@@H](N)Cc1ccc(F)cc1.Cl [PTT.119, 3-(p-fluorophenyl)-L-alanyl-3-[m-bis(2-chloroethyl)aminophenyl]-L-alanyl-L-methionine ethyl ester hydrochloride]
% tumor cell survival ([1]; 10 ug/ml, 1 hr): 98% | % tumor cell survival ([1]; 10 ug/ml, 4 hr): 98% | % tumor cell survival ([1]; 10 ug/ml, 24 hr): 82% | % tumor cell survival ([1]; 25 ug/ml, 1 hr): 100% | % tumor cell survival ([1]; 25 ug/ml, 4 hr): 97% | % tumor cell survival ([1]; 25 ug/ml, 8 hr): 97% | % tumor cell survival ([1]; 25 ug/ml, 24 hr): 35% | % tumor cell survival ([1]; 50 ug/ml, 1 hr): 94% | % tumor cell survival ([1]; 50 ug/ml, 4 hr): 90% | % tumor cell survival ([1]; 50 ug/ml, 8 hr): 76% | % tumor cell survival ([1]; 50 ug/ml, 24 hr): 20% | tumor growth in recipients ([2]; 10^6 B-16 cells treated with 25 ug or higher for 30 to 240 min): complete absence of tumor growth | MEAN SURVIVAL TIME (MST) of recipients ([2]; B-16, 5 ug/ml, 60 min): 31 days | MEAN SURVIVAL TIME (MST) of recipients ([2]; B-16, 5 ug/ml, 120 min): 33 days | MEAN SURVIVAL TIME (MST) of recipients ([2]; B-16, 5 ug/ml, 240 min): 41 days | MEAN SURVIVAL TIME (MST) of recipients ([2]; B-16, 10 ug/ml, 30 min): 35 days | MEAN SURVIVAL TIME (MST) of recipients ([2]; B-16, 10 ug/ml, 60 min): 35 days | MEAN SURVIVAL TIME (MST) of recipients ([2]; B-16, 10 ug/ml, 120 min): 35 days | MEAN SURVIVAL TIME (MST) of recipients ([2]; B-16, 10 ug/ml, 240 min): 45 days | MEAN SURVIVAL TIME (MST) of recipients ([2]; B-16, 25 ug/ml, 30 min): 52 days | MEAN SURVIVAL TIME (MST) of recipients ([2]; B-16, 25 ug/ml, 60 min): 68 days | MEAN SURVIVAL TIME (MST) of recipients ([2]; B-16, 25 ug/ml, 120 min): 65 days | initial lag period between inoculation and appearance of palpable tumors ([2]; B-16, increasing dosages, 2 hr treatment): lengthened | reduction of viable tumor cell population ([2]; B-16, inferred from LD100 of 100 viable cells): at least 99.9% | tumor growth rates of untreated and treated cells ([2]; B-16, once graft established): identical | mean survival time ([3]; single dose 10, 15, and 20 mg/kg 48 hours after 10^6 L-1210 cells i.p., from 8 days): 30 days | apparent cure, share of treated animals [3, 6]: 30% | increase of the mean survival time [3, 6]: 275% | decrease of level of p24 compared to virions from solvent cultures [4]: 36% | level of nonglycosylated protein p24 in MMTV particles [4]: substantial decreases | level of p24 protein in the virion core [4]: diminution | reduction in p24 [4]: 71% | relative level of p24 compared to control [4]: 35-40% | relative contribution of p24 in the virions, % of control level ([4]; hydrochloride): 54% and 74% and 65% | number of microvilli budding particles and buds ([5]; reincubated 1 day): reduced | number of microvilli ([5]; reincubated 2 days): reduced even farther
